# Experiments:
# Glutamate receptor 4 = Glutamate receptor 4 (Homo sapiens, UniProt P48058); assay: biochemical
# Glutamate receptor 1 [1] = biological target: Glutamate receptor 1 (Homo sapiens, UniProt P42261); assay: biochemical
# Glutamate receptor 2 = Glutamate receptor 2 (Homo sapiens, UniProt P42262); assay: biochemical
# Glutamate receptor 1 [2] = biological target: Glutamate receptor 1 (Rattus norvegicus, UniProt P19490); assay: Potency on Ionotropic glutamate receptor AMPA in hippocampal neurons; assay type: functional, tissue-based, Hippocampus
# [3] = biological target: Glutamate receptor ionotropic, kainate 3 (Rattus norvegicus, UniProt P42264); assay: Potency on Ionotropic glutamate receptor kainate in dorsal root ganglion cells; assay type: functional, cell-based
# Glutamate receptor ionotropic, kainate 3, sequence (P42264 whole entry): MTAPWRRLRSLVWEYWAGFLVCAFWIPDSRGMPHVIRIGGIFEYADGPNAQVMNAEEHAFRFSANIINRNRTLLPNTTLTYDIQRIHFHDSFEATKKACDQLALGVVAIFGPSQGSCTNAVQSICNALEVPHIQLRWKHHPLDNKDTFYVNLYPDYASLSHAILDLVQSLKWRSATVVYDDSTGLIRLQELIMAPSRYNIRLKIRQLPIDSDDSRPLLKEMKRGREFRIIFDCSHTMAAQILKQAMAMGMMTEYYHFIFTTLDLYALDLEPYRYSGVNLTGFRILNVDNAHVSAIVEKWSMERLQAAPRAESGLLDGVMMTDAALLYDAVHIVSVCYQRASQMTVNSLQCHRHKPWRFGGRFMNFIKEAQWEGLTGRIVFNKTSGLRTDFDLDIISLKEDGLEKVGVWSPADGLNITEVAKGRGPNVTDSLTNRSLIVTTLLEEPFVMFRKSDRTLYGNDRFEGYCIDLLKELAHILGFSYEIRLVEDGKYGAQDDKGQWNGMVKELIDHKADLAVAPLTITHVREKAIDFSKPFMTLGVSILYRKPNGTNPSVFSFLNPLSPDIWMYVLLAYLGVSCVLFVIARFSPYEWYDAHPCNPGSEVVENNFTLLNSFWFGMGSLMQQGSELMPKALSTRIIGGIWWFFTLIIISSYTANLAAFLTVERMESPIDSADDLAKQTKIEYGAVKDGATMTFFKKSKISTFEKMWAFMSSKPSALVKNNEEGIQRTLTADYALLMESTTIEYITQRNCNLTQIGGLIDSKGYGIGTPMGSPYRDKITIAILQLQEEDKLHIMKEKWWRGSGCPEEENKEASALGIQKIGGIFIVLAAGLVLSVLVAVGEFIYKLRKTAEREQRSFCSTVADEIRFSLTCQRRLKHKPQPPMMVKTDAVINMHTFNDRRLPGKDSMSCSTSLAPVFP
# Glutamate receptor 1 (Homo sapiens, UniProt P42261), sequence (P42261 whole entry): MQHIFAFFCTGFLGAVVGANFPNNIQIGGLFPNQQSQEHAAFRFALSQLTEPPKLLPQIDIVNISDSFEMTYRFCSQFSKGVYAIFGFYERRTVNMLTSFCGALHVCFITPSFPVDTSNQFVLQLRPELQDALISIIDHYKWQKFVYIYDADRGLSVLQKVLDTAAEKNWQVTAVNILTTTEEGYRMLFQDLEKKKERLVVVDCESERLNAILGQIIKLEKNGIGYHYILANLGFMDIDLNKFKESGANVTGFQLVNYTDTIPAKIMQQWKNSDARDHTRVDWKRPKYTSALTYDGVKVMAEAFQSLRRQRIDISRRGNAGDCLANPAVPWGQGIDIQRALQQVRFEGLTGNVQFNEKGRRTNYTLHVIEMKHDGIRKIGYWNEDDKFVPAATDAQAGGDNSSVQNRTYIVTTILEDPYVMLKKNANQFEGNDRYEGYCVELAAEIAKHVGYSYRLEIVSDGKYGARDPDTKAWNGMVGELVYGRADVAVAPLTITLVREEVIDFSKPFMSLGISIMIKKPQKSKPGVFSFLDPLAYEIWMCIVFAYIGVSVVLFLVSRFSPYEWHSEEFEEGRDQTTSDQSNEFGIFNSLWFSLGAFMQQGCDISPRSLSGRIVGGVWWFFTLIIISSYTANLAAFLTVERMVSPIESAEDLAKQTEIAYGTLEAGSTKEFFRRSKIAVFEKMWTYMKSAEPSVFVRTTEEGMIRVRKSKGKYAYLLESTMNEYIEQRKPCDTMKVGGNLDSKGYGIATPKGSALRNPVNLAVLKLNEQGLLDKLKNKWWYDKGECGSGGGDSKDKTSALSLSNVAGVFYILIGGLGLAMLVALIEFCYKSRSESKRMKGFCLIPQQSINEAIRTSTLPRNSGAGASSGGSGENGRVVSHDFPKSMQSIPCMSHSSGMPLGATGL
# Glutamate receptor 4, sequence (P48058 whole entry): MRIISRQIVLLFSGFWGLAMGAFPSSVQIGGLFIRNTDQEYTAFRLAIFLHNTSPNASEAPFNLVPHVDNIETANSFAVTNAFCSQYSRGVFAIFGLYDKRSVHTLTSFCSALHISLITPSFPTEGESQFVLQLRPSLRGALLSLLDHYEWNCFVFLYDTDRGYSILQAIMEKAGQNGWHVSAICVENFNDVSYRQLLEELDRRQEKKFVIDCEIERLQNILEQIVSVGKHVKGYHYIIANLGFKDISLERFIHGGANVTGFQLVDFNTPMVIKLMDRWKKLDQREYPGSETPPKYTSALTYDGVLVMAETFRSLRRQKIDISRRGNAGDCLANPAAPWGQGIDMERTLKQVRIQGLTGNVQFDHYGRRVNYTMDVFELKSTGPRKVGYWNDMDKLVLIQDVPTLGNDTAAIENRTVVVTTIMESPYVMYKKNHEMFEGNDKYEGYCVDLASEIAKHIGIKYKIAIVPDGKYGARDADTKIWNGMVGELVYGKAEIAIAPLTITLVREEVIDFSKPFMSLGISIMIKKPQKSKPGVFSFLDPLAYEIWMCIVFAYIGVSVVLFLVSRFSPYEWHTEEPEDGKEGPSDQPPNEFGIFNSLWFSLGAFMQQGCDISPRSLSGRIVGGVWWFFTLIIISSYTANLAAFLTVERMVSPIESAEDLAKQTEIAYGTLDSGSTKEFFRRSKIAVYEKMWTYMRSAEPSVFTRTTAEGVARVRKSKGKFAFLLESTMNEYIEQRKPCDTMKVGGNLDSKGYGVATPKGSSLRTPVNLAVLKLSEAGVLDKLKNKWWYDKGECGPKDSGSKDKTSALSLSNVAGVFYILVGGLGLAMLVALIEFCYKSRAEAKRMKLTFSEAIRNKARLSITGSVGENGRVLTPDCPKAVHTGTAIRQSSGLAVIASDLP
# Glutamate receptor 2, sequence (P42262 whole entry): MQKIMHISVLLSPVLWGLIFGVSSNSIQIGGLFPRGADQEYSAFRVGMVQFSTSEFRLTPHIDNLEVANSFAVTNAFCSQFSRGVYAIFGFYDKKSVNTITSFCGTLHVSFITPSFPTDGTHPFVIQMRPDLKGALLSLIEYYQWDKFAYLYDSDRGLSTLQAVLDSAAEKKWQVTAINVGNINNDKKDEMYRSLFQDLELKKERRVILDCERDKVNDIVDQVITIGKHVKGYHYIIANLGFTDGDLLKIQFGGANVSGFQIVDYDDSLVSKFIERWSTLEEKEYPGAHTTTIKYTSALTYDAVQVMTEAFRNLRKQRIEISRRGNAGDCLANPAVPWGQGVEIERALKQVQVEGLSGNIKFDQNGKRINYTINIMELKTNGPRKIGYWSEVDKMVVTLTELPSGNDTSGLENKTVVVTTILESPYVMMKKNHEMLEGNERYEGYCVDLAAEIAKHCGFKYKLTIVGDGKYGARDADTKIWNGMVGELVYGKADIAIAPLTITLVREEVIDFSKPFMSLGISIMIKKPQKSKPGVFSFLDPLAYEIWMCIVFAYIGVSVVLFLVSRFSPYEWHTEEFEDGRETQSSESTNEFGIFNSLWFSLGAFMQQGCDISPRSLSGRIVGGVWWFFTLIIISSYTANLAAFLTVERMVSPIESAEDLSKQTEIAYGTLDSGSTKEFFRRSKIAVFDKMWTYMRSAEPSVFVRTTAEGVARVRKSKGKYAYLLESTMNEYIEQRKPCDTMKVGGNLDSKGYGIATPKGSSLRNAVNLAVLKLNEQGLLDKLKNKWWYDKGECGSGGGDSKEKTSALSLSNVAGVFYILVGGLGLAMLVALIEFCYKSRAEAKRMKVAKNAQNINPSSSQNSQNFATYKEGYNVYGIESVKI
# Glutamate receptor 1 (Rattus norvegicus, UniProt P19490), sequence (P19490 whole entry): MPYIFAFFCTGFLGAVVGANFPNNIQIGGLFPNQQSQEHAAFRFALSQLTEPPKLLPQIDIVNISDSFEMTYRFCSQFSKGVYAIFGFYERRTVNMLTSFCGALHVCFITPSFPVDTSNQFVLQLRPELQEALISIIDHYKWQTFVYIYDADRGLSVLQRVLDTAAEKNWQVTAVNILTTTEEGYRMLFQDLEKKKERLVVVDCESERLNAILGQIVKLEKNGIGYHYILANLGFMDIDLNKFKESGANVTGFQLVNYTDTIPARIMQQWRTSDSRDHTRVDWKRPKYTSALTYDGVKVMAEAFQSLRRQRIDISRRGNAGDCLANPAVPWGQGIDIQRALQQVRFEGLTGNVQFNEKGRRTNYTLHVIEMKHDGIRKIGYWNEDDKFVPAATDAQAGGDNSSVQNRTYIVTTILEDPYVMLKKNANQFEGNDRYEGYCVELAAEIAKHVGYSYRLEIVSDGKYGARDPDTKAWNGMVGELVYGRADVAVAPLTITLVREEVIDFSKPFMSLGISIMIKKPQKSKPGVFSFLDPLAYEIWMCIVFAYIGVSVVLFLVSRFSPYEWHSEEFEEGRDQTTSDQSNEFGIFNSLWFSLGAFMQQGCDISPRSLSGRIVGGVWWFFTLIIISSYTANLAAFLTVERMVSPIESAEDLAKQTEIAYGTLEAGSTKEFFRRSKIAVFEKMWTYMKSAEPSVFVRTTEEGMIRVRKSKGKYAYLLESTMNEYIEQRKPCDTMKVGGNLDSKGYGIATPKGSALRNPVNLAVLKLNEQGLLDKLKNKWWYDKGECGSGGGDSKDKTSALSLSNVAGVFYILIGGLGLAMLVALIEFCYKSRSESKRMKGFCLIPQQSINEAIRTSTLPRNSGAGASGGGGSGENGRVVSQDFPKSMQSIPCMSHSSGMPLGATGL
Compound,Ki (Glutamate receptor 4) [nM],Ki (Glutamate receptor 1 [1]) [nM],Ki (Glutamate receptor 2) [nM],EC50 (Glutamate receptor 1 [2]) [nM],EC50 [3] [nM]
N[C@@H](Cn1cc(Br)c(=O)[nH]c1=O)C(=O)O,457,92,,,
N[C@@H](Cn1ccc(=O)[nH]c1=O)C(=O)O [(S)-WILLARDIINE],8850,386,,,
N[C@@H](Cn1nc(Cl)c(=O)[nH]c1=O)C(=O)O,3.6,7.1,16.7,,
Cc1nn(C[C@H](N)C(=O)O)c(=O)[nH]c1=O,89,240,372,,
N[C@@H](Cn1nc(Br)c(=O)[nH]c1=O)C(=O)O,7.9,29,19.3,,
N[C@@H](Cn1cc(I)c(=O)[nH]c1=O)C(=O)O,972,163,,19200,140
N[C@@H](Cn1nc(I)c(=O)[nH]c1=O)C(=O)O,19.9,73.9,101,,
N[C@@H](Cn1ncc(=O)[nH]c1=O)C(=O)O,189,163,461,,
N[C@@H](Cn1cc(Cl)c(=O)[nH]c1=O)C(=O)O,451,65,,,
N[C@@H](Cn1cc(F)c(=O)[nH]c1=O)C(=O)O,305,14.7,,,
N[C@@H](Cn1cc([N+](=O)[O-])c(=O)[nH]c1=O)C(=O)O,207,279,,,
